Measured values as given in PubChem BioAssay (NCI).
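Briefly, cells in 96-well plates were exposed to five compound concentrations for 48 h, and endpoints were estimated by linear interpolation. Abbreviation: GI50, concentration required for 50% inhibition of growth. The concentration for full growth arrest is given as TGI.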

How the values were obtained:
Test in all cases: DTP human tumour cell line panel, 48 h
[1] = test system: LOX IMVI melanoma
[2] = test system: SN12C renal
[3] = test system: HCC-2998 colon
[4] = test system: UO-31 renal
[5] = test system: OVCAR-5 ovarian
[6] = test system: SK-OV-3 ovarian
[7] = test system: HCT-15 colon
[8] = test system: SK-MEL-5 melanoma
[9] = test system: SF-268 CNS
[10] = test system: NCI-H23 lung

| SMILES | TGI [1] [µM] | TGI [2] [µM] | TGI [3] [µM] | TGI [4] [µM] | TGI [5] [µM] | TGI [6] [µM] | TGI [7] [µM] | TGI [8] [µM] | TGI [9] [µM] | TGI [10] [µM] | GI50 [1] [µM] | GI50 [3] [µM] | GI50 [4] [µM] | GI50 [9] [µM] | GI50 [5] [µM] | GI50 [6] [µM] | GI50 [7] [µM] | GI50 [10] [µM] | GI50 [8] [µM] |
| --- | --- | --- | --- | --- | --- | --- | --- | --- | --- | --- | --- | --- | --- | --- | --- | --- | --- | --- | --- |
| CCCCOCn1c(=O)[nH]c(=O)c2cc(Br)ccc21 | > 100 | > 100 | > 100 | 52.6 | > 100 | > 100 | > 100 | > 100 |  |  |  |  |  |  |  |  |  |  |  |
| Cn1cnc2c(sc3nc4ccccc4n32)c1=N | > 100 |  | > 100 | > 100 | > 100 | > 100 | > 100 | > 100 | > 100 | > 100 |  |  |  |  |  |  |  |  |  |
| O=C(NCCCNCCNC(=O)c1cc(-c2ccccc2)nc2ccccc12)c1cc(-c2ccccc2)nc2ccccc12 | 2.95 | 3.24 | 3.11 | 3.89 |  | 6.34 | 3.23 | 3.03 |  |  |  |  |  |  |  |  |  |  |  |
| O=C(CNc1ccc(Cl)cc1Cl)NC1C=Cc2ccc(S(=O)(=O)Nc3ccc(Cl)cc3Cl)cc2C1=O (stereo not given) | > 100 | > 100 | > 100 | > 100 | > 100 | > 100 | > 100 |  | > 100 | > 100 |  |  |  |  |  |  |  |  |  |
| C=CC[C@@]1(C(=O)OC)[C@H](Sc2ccccc2)C1(C)C |  | 76.8 | 96.2 | > 100 | > 100 | > 100 | > 100 | 44.3 | > 100 | 97.3 |  |  |  |  |  |  |  |  |  |
| COc1ccc(/C=C2\N=C(c3ccccc3)N(C3Nc4cc5c(cc4S3)NC(N3C(=O)/C(=C/c4ccc(OC)cc4)N=C3c3ccccc3)S5)C2=O)cc1 (stereo not given) | > 100 |  | 97.7 | > 100 | > 100 |  | > 100 | > 100 | > 100 | > 100 |  |  |  |  |  |  |  |  |  |
| O=C1c2cccc3cccc(c23)C(=O)N1CCCNOCCONCCCN1C(=O)c2cccc3cccc(c23)C1=O | > 100 |  | > 100 | > 100 | > 100 | > 100 | > 100 | > 100 | > 100 | > 100 |  |  |  |  |  |  |  |  |  |
| COc1c(C)c(OC)c2c(c1O)[C@@H]1[C@@H]3Cc4c(OC)c(C)c(OC)c(O)c4[C@H](CNC(=O)c4cnc5ccccc5n4)N3[C@@H](C#N)[C@H](C2)N1C | > 0.0273 | > 0.0718 |  | > 0.0423 | > 0.1 | > 0.0445 | > 0.0716 | 0.0187 | > 0.1 | 0.0121 |  |  |  |  |  |  |  |  |  |
| CC(=O)c1cc2c(s1)C(=O)c1ccccc1C2=O | 15 | 16.3 | 18.3 | 9.1 | 20.6 | > 80.3 |  | 0.588 | 16 |  |  |  |  |  |  |  |  |  |  |
| COc1cc(S(=O)(=O)Nc2ccc(C3=NNC(c4ccccc4)C3)cc2)ccc1F (stereo not given) | > 100 |  | > 100 | > 100 | > 100 | > 100 | > 100 | 31.6 | > 100 | > 100 | 73.5 | 54.4 | > 100 | 65.1 | 66.8 | > 100 | 49 | 34.6 | 13.9 |
| CN(C)CCCOCCn1c2c(c3ccccc31)CCCC2 | 31.5 | 32.5 | 28.4 | 36.9 | 30.5 |  | 30.5 | 25.3 | > 100 | 94.6 |  |  |  |  |  |  |  |  |  |
| CCOC(=O)C(/C=N\C(=S)Nc1ccc(OCC)cc1)=C(/O)c1ccccc1 | > 100 | > 100 | > 100 |  | > 100 | > 100 | > 100 | > 100 | > 100 | > 100 |  |  |  |  |  |  |  |  |  |
| O=C(NCc1ccc(Cl)cc1)c1cc2sccc2nc1C(F)(F)F |  | > 100 |  | > 100 | > 100 | > 100 |  | > 100 | 66.9 | > 100 |  |  |  |  |  |  |  |  |  |
| C[C@]12CC[C@@H]3c4ccc(OC(=O)c5ccccc5)cc4CC[C@H]3[C@@H]1CC[C@@H]2Oc1c2ccccc2nc2ccccc12 | 15.6 |  | 16.9 | > 50 | > 50 | > 50 | 31.5 | 18.5 | 20.8 | > 50 |  |  |  |  |  |  |  |  |  |
| Oc1ccc(CCc2cc(O)cc(O)c2)cc1 |  | > 100 |  | > 100 | > 100 | > 100 | > 100 | > 100 | > 100 | > 100 |  |  |  |  |  |  |  |  |  |
| NNc1nncn1N | > 100 | > 100 |  | > 100 | > 100 | > 100 | > 100 | > 100 | > 100 | > 79.5 |  |  |  |  |  |  |  |  |  |
| Cc1sc2ccccc2[n+]1CCC(=O)O | > 100 | > 100 |  |  | > 100 | > 100 | > 100 | > 100 | > 100 | > 100 |  |  |  |  |  |  |  |  |  |
| C[N+](C)(C)c1ncnc2c1ncn2C1CCCCO1 (stereo not given) | > 100 | > 100 |  | > 100 | > 100 | > 100 |  | > 100 | > 100 | > 100 |  |  |  |  |  |  |  |  |  |
| NNC(=S)N1CCN(C(=S)NN)CC1 | > 100 | > 100 | > 100 | > 100 | > 100 | > 100 |  | > 100 | > 100 | > 100 |  |  |  |  |  |  |  |  |  |
| COc1cc(/C=C2\CCC(C)C3=C2NC(=S)NC3c2cc(OC)c(OC)c(OC)c2)cc(OC)c1OC (stereo not given) | > 100 | > 100 |  | 66 | > 100 | > 100 | > 100 | 59 | > 100 |  |  |  |  |  |  |  |  |  |  |
| CC(C)N(C)C(=O)C12C3C4C1C1C2C3C41C#N (stereo not given) | > 100 | > 100 | > 100 | > 100 | > 100 |  | > 100 | > 100 | > 100 | > 100 |  |  |  |  |  |  |  |  |  |
| CCO/C(O)=C(/C(=N)N1CCCC1)C(=O)Nc1cccc(C(F)(F)F)c1 | > 100 | > 100 | > 100 |  | > 100 | > 100 | > 100 |  | > 100 | > 100 |  |  |  |  |  |  |  |  |  |
